This is an account of results in patent publication US4363805A, “Aminodesoxy-1.4;3.6-dianhydrohexitol nitrates and pharmaceutical composition” (Firma Willmar Schwabe, priority 1980, dated 1982).

Structures are written as SMILES.

One series has as its system narcotised guinea pigs. Kind of series: Blood pressure experiments on guinea pigs, i.v. The class given is in vivo, guinea pig. The following applies: for blood pressure before: before administration.
The nature of series [1]: Acute toxicity, intravenous, mice. The format is in vivo. The conditions noted are these: mouse, in vivo; intravenous, within 24 hours; read-out: Evaluated LD50-range.
In the next series the test system is female NMRI-albino mice. Kind of series: Acute toxicity, intravenous, mice. The format is in vivo. The conditions noted are these: within 24 hours.
In series [2] the test system is isolated guinea pig hearts. Briefly: Experiments on Langendorff hearts (coronary flowthrough, inotropism, frequency). The conditions noted are these: Cavia porcellus, read-out: flowthrough, percentage change with regard to the initial value.
Experimental: After reaching the stationary state in the 30th minute, the hearts were each perfused with 50 ml. tyrode solution with a content of test substance of, in each case, 25 μg./ml. Each test substance was tested on 3-6 hearts.
In each case, there was measured the inotropism, the flowthrough and the frequency, whereby the values given in Table I are average values of the percentage changes in comparison with the initial values.
The subject of a further series is mongrel cats. Briefly: Inotropic and heart-circulatory effectiveness on narcotised cats, intravenous. The class given is in vivo, cat. The conditions noted are these: 6 animals.
Where [3] appears, read: 0.25 mg/kg i.v., before administration.

For `O=[N+]([O-])O[C@H]1CO[C@H]2[C@@H]1OC[C@@H]2N1CCCC1` [14 b], in the series on narcotised guinea pigs (0.25 mg/kg i.v.), the blood pressure after was determined as 65.75 ± 0.75 mm.Hg, the “blood pressure Δ” value is reported as -5.50 mm.Hg and the blood pressure before was 71.25 ± 0.63 mm.Hg. In addition, in the series with narcotised guinea pigs (1.00 mg/kg i.v.), the blood pressure after is on record as 56.25 ± 2.17 mm.Hg and the “blood pressure Δ” value is listed as -14.00 mm.Hg. In the series on narcotised guinea pigs (2.50 mg/kg i.v.), the blood pressure after is on record as 49.25 ± 3.94 mm.Hg and the “blood pressure Δ” value is given as -18.50 mm.Hg. In series [1], the LD50 at 24 h was at least 200 mg/kg. Besides, the Frequency of death in the series with female NMRI-albino mice (200 mg/kg i.v.) is recorded as 1/3. For the same compound, the activation at 25 µg/mL in series [2] is 25.4%.

For `O=[N+]([O-])O[C@H]1CO[C@H]2[C@@H]1OC[C@@H]2NCc1ccccc1` [Example 25, 5-Benzylamino-5-desoxy-1.4;3.6-dianhydro-L-iditol 2-nitrate], the LD50 at 24 h in series [1] is 100 to 200 mg/kg. Moreover, the Frequency of death is listed as 0/3 in the series on female NMRI-albino mice (100 mg/kg i.v.) and 6/6 in the series with female NMRI-albino mice (200 mg/kg i.v.). The activation at 25 µg/mL in series [2] is 47.8%.

Take `CN(Cc1ccccc1)[C@H]1CO[C@H]2[C@@H]1OC[C@@H]2O[N+](=O)[O-]` [Example 19, 5-(N-Benzyl-N-methylamino)-5-desoxy-1.4;3.6-dianhydro-L-iditol 2-nitrate]: the median lethal dose (LD50) at 24 h in series [1] fell in the range of 100 to 200 mg/kg. Further, the Frequency of death in the series on female NMRI-albino mice (100 mg/kg i.v.) was 0/3; in the series with female NMRI-albino mice (200 mg/kg i.v.) it was 6/6. In series [2], the activation at 25 µg/mL came out at 100%.

Consider `CN1CCN([C@H]2CO[C@H]3[C@@H]2OC[C@@H]3O[N+](=O)[O-])CC1` [17 b], for which, in the series with narcotised guinea pigs (0.25 mg/kg i.v.), the blood pressure after turned out to be 59.00 ± 2.27 mm.Hg, the “blood pressure Δ” value is reported as -4.50 mm.Hg and the blood pressure before came out at 63.50 ± 3.77 mm.Hg. Further, in the series with narcotised guinea pigs (1.00 mg/kg i.v.), the blood pressure after was 46.25 ± 3.07 mm.Hg and the “blood pressure Δ” value was -17.75 mm.Hg. In the series with narcotised guinea pigs (2.50 mg/kg i.v.), the blood pressure after came out at 38.25 ± 4.55 mm.Hg and the “blood pressure Δ” value is given as -23.50 mm.Hg. In addition, the median lethal dose (LD50) at 24 h in series [1] is above 200 mg/kg. Also, in the series with female NMRI-albino mice (200 mg/kg i.v.), the Frequency of death is 0/3. Also, in series [2], the activation at 25 µg/mL came out at 25.1%.

As for `O=[N+]([O-])O[C@H]1CO[C@H]2[C@@H]1OC[C@@H]2NCCCc1ccccc1` [Example 28, 5-(3-Phenylpropylamino)-5-desoxy-1.4;3.6-dianhydro-L-iditol 2-nitrate], in the series on mongrel cats (setting [3]), the blood pressure before was 101.3 mm.Hg, the “dp/dt (inotropism) before” value is listed as 7667 mm.Hg/sec and the heart frequency before came to 225.0 min⁻¹. For the same compound, in the series with mongrel cats (0.25 mg/kg i.v.), the “blood pressure WD” value stood at 3.1 min, the blood pressure after came out at 81.8 mm.Hg, the “blood pressure Δ” value is reported as -19.5 mm.Hg and the “dp/dt (inotropism) after” value is recorded as 7400 mm.Hg/sec. Moreover, in the series on mongrel cats (0.25 mg/kg i.v.), the “dp/dt (inotropism) Δ” value is reported as -267 mm.Hg/sec, the “dp/dt WD” value was 2.7 min, the heart frequency after came out at 223.3 min⁻¹ and the “heart frequency Δ” value was -1.7 min⁻¹. In the series on mongrel cats (0.50 mg/kg i.v.), the “blood pressure WD” value turned out to be 5.8 min, the blood pressure after was determined as 79.0 mm.Hg, the “blood pressure Δ” value was -25.9 mm.Hg and the “dp/dt (inotropism) after” value is 6567 mm.Hg/sec. In the series on mongrel cats (0.50 mg/kg i.v.), the “dp/dt (inotropism) Δ” value was -1000 mm.Hg/sec, the “dp/dt WD” value amounted to 10.7 min, the heart frequency after amounted to 226.3 min⁻¹ and the “heart frequency Δ” value was -1.7 min⁻¹. Besides, in the series on mongrel cats (1.00 mg/kg i.v.), the “blood pressure WD” value is recorded as 12.2 min, the blood pressure after is 70.0 mm.Hg, the “blood pressure Δ” value was -39.7 mm.Hg and the “dp/dt (inotropism) after” value was found to be 5533 mm.Hg/sec. In the series with mongrel cats (1.00 mg/kg i.v.), the “dp/dt (inotropism) Δ” value is on record as -1534 mm.Hg/sec, the “dp/dt WD” value is given as 23.0 min, the heart frequency after worked out at 227.0 min⁻¹ and the “heart frequency Δ” value is -1.0 min⁻¹. In the series on mongrel cats (2.50 mg/kg i.v.), the “blood pressure WD” value is above 10 min, the blood pressure after is reported as 53.2 mm.Hg, the “blood pressure Δ” value was -50.3 mm.Hg and the “dp/dt (inotropism) after” value is reported as 3600 mm.Hg/sec. Also, in the series with mongrel cats (2.50 mg/kg i.v.), the “dp/dt (inotropism) Δ” value was -3067 mm.Hg/sec, the “dp/dt WD” value is above 10 min, the heart frequency after worked out at 206.3 min⁻¹ and the “heart frequency Δ” value was -22.0 min⁻¹. The 50% lethal dose (LD50) at 24 h in series [1] fell in the range of 50 to 100 mg/kg. In addition, the Frequency of death in the series with female NMRI-albino mice (50 mg/kg i.v.) is reported as 0/10. Further, the Frequency of death in the series on female NMRI-albino mice (100 mg/kg i.v.) is 5/6. For the same compound, the Frequency of death in the series with female NMRI-albino mice (200 mg/kg i.v.) is 3/3. In addition, the activation at 25 µg/mL in series [2] was 68.1%.

For the compound `O=[N+]([O-])O[C@H]1CO[C@H]2[C@@H]1OC[C@@H]2NCCOc1ccccc1` [Example 35, 5-(2-Phenoxyethylamino)-5-desoxy-1.4;3.6-dianhydro-L-iditol 2-nitrate], the LD50 at 24 h in series [1] is at least 100 mg/kg. Further, the Frequency of death is reported as 2/6 in the series with female NMRI-albino mice (100 mg/kg i.v.) and 3/3 in the series with female NMRI-albino mice (200 mg/kg i.v.). For the same compound, the activation at 25 µg/mL in series [2] was found to be 34%.

As for `O=[N+]([O-])O[C@H]1CO[C@H]2[C@@H]1OC[C@@H]2N1CCOCC1` [16 b], in the series with narcotised guinea pigs (0.25 mg/kg i.v.), the blood pressure after was 59.50 ± 5.63 mm.Hg, the “blood pressure Δ” value is listed as -9.25 mm.Hg and the blood pressure before came to 68.75 ± 3.07 mm.Hg. Besides, in the series with narcotised guinea pigs (1.00 mg/kg i.v.), the blood pressure after is listed as 48.25 ± 4.80 mm.Hg and the “blood pressure Δ” value is -19.75 mm.Hg. Besides, in the series with narcotised guinea pigs (2.50 mg/kg i.v.), the blood pressure after came to 43.25 ± 4.91 mm.Hg and the “blood pressure Δ” value is reported as -23.50 mm.Hg. The LD50 at 24 h in series [1] was above 200 mg/kg. In addition, the Frequency of death in the series on female NMRI-albino mice (200 mg/kg i.v.) was 0/3. The activation at 25 µg/mL in series [2] is 14.7%.

As for `O=[N+]([O-])O[C@H]1CO[C@H]2[C@@H]1OC[C@@H]2N1CCCCC1` [15 b], the blood pressure after in the series with narcotised guinea pigs (0.25 mg/kg i.v.) came to 63.00 ± 1.83 mm.Hg; in the series on narcotised guinea pigs (1.00 mg/kg i.v.) it was 53.50 ± 1.71 mm.Hg; in the series on narcotised guinea pigs (2.50 mg/kg i.v.), 49.00 ± 2.48 mm.Hg. Moreover, the “blood pressure Δ” value with narcotised guinea pigs (0.25 mg/kg i.v.) is -9.00 mm.Hg; in the series on narcotised guinea pigs (1.00 mg/kg i.v.), -17.75 mm.Hg; with narcotised guinea pigs (2.50 mg/kg i.v.), -23.00 mm.Hg. This compound returned a blood pressure before with narcotised guinea pigs (0.25 mg/kg i.v.) of 72.00 ± 2.12 mm.Hg. For the same compound, the 50% lethal dose (LD50) at 24 h in series [1] lay within 50 to 100 mg/kg. The Frequency of death in the series with female NMRI-albino mice (50 mg/kg i.v.) is reported as 0/3; in the series with female NMRI-albino mice (100 mg/kg i.v.), 2/3; in the series with female NMRI-albino mice (200 mg/kg i.v.), 6/6. Further, in series [2], the activation at 25 µg/mL came to 34%.

Take `CN(C)[C@H]1CO[C@H]2[C@@H]1OC[C@@H]2O[N+](=O)[O-]` [12 b]: the LD50 at 24 h in series [1] was above 200 mg/kg. Also, the Frequency of death in the series on female NMRI-albino mice (200 mg/kg i.v.) is recorded as 0/3. Besides, in series [2], the activation at 25 µg/mL is 16.2%.

As for `CCN(CC)[C@H]1CO[C@H]2[C@@H]1OC[C@@H]2O[N+](=O)[O-]` [13 b], the LD50 at 24 h in series [1] is 100 to 200 mg/kg. Besides, the Frequency of death in the series with female NMRI-albino mice (100 mg/kg i.v.) is on record as 0/3; in the series with female NMRI-albino mice (200 mg/kg i.v.), 6/6. In series [2], the activation at 25 µg/mL stood at 9.05%.

For `Cc1cccc(OCC(O)CN[C@H]2CO[C@H]3[C@@H]2OC[C@@H]3O[N+](=O)[O-])c1` (stereo partly drawn) [Example 51, 5-[2-Hydroxy-3-(3-tolyloxy)-propylamino]-5-desoxy-1.4;3.6-dianhydro-L-iditol 2-nitrate], the values for the blood pressure after with narcotised guinea pigs (0.25 mg/kg i.v.), in the series with narcotised guinea pigs (1.00 mg/kg i.v.) and with narcotised guinea pigs (2.50 mg/kg i.v.) were 63.00 ± 2.35 mm.Hg, 55.75 ± 2.36 mm.Hg and 42.25 ± 1.32 mm.Hg, respectively. For the same compound, the “blood pressure Δ” value with narcotised guinea pigs (0.25 mg/kg i.v.) is given as -3.75 mm.Hg; with narcotised guinea pigs (1.00 mg/kg i.v.), -10.25 mm.Hg; in the series with narcotised guinea pigs (2.50 mg/kg i.v.) it was -23.50 mm.Hg. For the same compound, in the series on narcotised guinea pigs (0.25 mg/kg i.v.), the blood pressure before came out at 66.75 ± 2.49 mm.Hg. The LD50 at 24 h in series [1] is 50 to 100 mg/kg. Besides, the Frequency of death with female NMRI-albino mice (50 mg/kg i.v.) is 0/3; with female NMRI-albino mice (100 mg/kg i.v.), 3/3; in the series on female NMRI-albino mice (200 mg/kg i.v.), 6/6. The activation at 25 µg/mL in series [2] was found to be 92.4%.

Take `N[C@@H]1CO[C@H]2[C@@H]1OC[C@@H]2O[N+](=O)[O-]` [2 b]: the results for the blood pressure after in the series on narcotised guinea pigs (0.25 mg/kg i.v.), in the series with narcotised guinea pigs (1.00 mg/kg i.v.) and with narcotised guinea pigs (2.50 mg/kg i.v.) were 50.25 ± 8.19 mm.Hg, 41.50 ± 4.66 mm.Hg and 31.75 ± 3.09 mm.Hg, respectively. The “blood pressure Δ” value is given as -5.75 mm.Hg in the series on narcotised guinea pigs (0.25 mg/kg i.v.), -14.25 mm.Hg with narcotised guinea pigs (1.00 mg/kg i.v.) and -19.50 mm.Hg with narcotised guinea pigs (2.50 mg/kg i.v.). The blood pressure before with narcotised guinea pigs (0.25 mg/kg i.v.) is 56.00 ± 7.91 mm.Hg. In addition, the LD50 at 24 h in series [1] was above 200 mg/kg. For the same compound, the Frequency of death in the series with female NMRI-albino mice (200 mg/kg i.v.) is recorded as 0/3. In addition, the activation at 25 µg/mL in series [2] came to 25.9%.

The LD50 is the dose expected to kill half of the subjects tested.
